{"source": "patent US20120114596A1", "about": "“TSLP PROMOTES IMMUNE EVASION AND PERSISTENCE OF VIRUSES” (priority 2009, published 2012)", "key": {"TSLP expression": {"test_system": "TSLP expression", "conditions": "cited from earlier work"}, "CD11c+ DCs": {"test_system": "CD11c+ DCs", "assay_type": "cell-based, human"}, "DCs [1]": {"test_system": "DCs", "experiment": "DC polarization / cytoskeleton architecture by epifluorescence microscopy", "assay_type": "cell-based, human"}, "DCs [2]": {"test_system": "DCs", "experiment": "DC motility in micro-channel system (confined environment)", "assay_type": "cell-based, human", "from_the_text": "A tissue represents a confined environment for cell migration (Irimia et al., Lab Chip, 2007, 7, 1783-1790). Cells may be “trapped” in narrow spaces, being forced to pass through areas of diverse densities. In order to mimic such in vivo situation, a micro-channel system was used. This system allows quantifying diverse parameters to define the cell movement and to restrain the direction of the mobile cells.\nThe microfluidic device was fabricated in PDMS (Whitesides G. M., E., O., Takayama S., X., J. & E, I. D. Ann Rev Biomed Eng, 2001 3, 335). The PDMS piece, with embedded microchannels and holes for the inlet and outlet ports, and a glass Iwaki chamber (Milian) were activated in a plasma cleaner (PDC-32G Harrick) and bonded to each other. The chambers were left under strong vacuum for 5 min in the plasma cleaner and plasma was turned on to render the top surface of the PDMS and the inlet and outlet holes hydrophilic. Fibronectin solution at 50 μg/ml was placed on top of the inlet and outlet ports. The solution spontaneously invaded the channels and all air bubbles were resorbed into the PDMS due to the previous vacuum treatment. Fibronectin was incubated for 1 h at room temperature, then washed with PBS then replaced by cell culture medium. The cells were concentrated and micropipette tips containing the cells were inserted in the inlet port. Cells fell inside the port, bound to the bottom coverslip and started migrating. They entered the channels spontaneously, without any mechanical or chemical stimulation.\nPhase contrast […], using an automated microscope (Nikon ECLIPSE TE1000-E, and Olympus X71, with a Marzhauser motorized stage and an HQ2 Roper camera) equipped with an environmental chamber for temperature, humidity and CO2 (Life Imaging Services). Cells remained alive and motile during the entire period of recording.\nTo analyse the importance of myosin II in DCs migration, cells were pre-treated with […] blebbistatin and then concentrated and inserted in the microchannels."}, "naive CD4+ T cells": {"test_system": "naive CD4+ T cells", "experiment": "Priming of naive CD4+ T cells by activated DCs, T cell cytokine profile", "assay_type": "cell-based, human", "conditions": "DC:T 1:5, 5-6 days, re-stimulation", "procedure": "After 24 h of culture, stimulated CD11c^+ DCs were collected, washed, and co-cultured with allogenic naïve CD4^+ T cells in round-bottomed plates 96-well culture plates (Falcon) at a 1:5 DC: T cell ratio in Yssel's medium (kind gift of Hans Yssel) containing 10% FCS (Hyclone). Peripheral blood naïve CD4^+ T cells were isolated by using CD4 T cell isolation kit II (Miltenyi Biotec) followed by staining for CD45RO-FITC, CD45RA-PE, CD4-APC, and cell sorting of CD45RA^+, CD4^+, CD45RO^− cells (purity>99%) with a FACSAria (BD Bioscience). Standard Th subsets were generated in presence of Dynabeads CD3/CD28 T cell expander (1 bead per cell) (Invitrogen) and 10 ng/ml IL-12 (R&D Systems) for Th1, 25 ng/ml IL-4 (R&D Systems) for Th2 and in absence of any polarizing cytokine for Th0.\nAfter 5-6 days, cells were harvested, extensively washed and viability was determined by trypan blue exclusion. […] Cytokines in culture supernatants were measured by cytometric bead assay (CBA) Flex Sets (BD Bioscience) according to the manufacturer's instruction. IFN-γ-, IL-4-, IL-10-, TNF-producing cells were analysed by intracellular cytokine staining after addition of 10 μg/ml Brefeldin during the last 3 h of re-stimulation. […] Cells were stained with anti-IFN-γ FITC, anti-IL-4 PE, anti-IL-10 PE, anti-TNF PE (BD Pharmingen) washed and then analysed by flow cytometry (FACScan Becton Dickinson)."}, "Langerhans cells (LC)": {"test_system": "Langerhans cells (LC)", "experiment": "Epidermal explant model of LC emigration", "assay_type": "cell-based, human", "conditions": "FIGS. 2B and C", "from_the_text": "Next, epidermal explants were used as a global model to study the emigration of LC."}, "DCs [3]": {"test_system": "DCs", "experiment": "DC activation by surface expression of CD40, CD80, CD86, OX40L"}}, "note": "“Also recorded” adds a separate entry of the source."}
{"compound": "CC1=C(/C=C/C(C)=C\\C=C\\C(C)=C\\C(=O)O)C(C)(C)CCC1", "note": "[9-cis-retinoic acid]", "values": [{"measurement": "regulation of TSLP expression", "setting": "TSLP expression", "value": "negative regulators of TSLP expression"}]}
{"compound": "Cc1ccc2c(c1)C(=O)C1(O)CCN(c3ccccc3)C1=N2", "note": "(centres unmarked) [blebbistatin, reference compound]", "values": [{"measurement": "blebbistatin dose inhibiting TSLP-induced DC migration", "setting": "CD11c+ DCs", "value": 20, "unit": "nM"}, {"measurement": "morphology of TSLP-DCs under myosin II inhibition", "setting": "DCs [1]; TSLP with 20 nM blebbistatin, 12 h", "value": "extremely elongated cellular shape"}, {"measurement": "effect on TSLP-induced DC entry into micro-channels", "setting": "DCs [2]; blebbistatin 50 nM pre-culture", "value": "significantly inhibited"}]}
{"compound": "c1ccc2ncncc2c1", "note": "[quinazoline]", "values": [{"measurement": "regulation of TSLP expression", "setting": "TSLP expression", "value": "negative regulators of TSLP expression"}]}
{"compound": "TSLP: cytokine of the IL-7 family produced by epithelial cells; recombinant from R&D Systems", "values": [{"measurement": "T cell cytokine profile induced by activated DC", "setting": "naive CD4+ T cells", "value": "Th2 profile"}, {"measurement": "migration of CD1a+ Langerin+ TSLP-receptor+ CD80+ cells from epidermal explants", "setting": "Langerhans cells (LC)", "value": "significantly increased; also recorded: more efficient than TNFa"}, {"measurement": "DC migration in transwell", "setting": "CD11c+ DCs", "value": "highly efficient for migration"}, {"measurement": "time after TSLP exposure at which migration started", "setting": "CD11c+ DCs", "value": 3, "unit": "h"}, {"measurement": "DC polarization (actin cytoskeleton morphology)", "setting": "DCs [1]", "value": "extremely polarized"}, {"measurement": "increase in capacity of DCs to enter micro-channels vs control medium", "setting": "DCs [2]; 3 h time-lapse, n=3", "value": 4, "unit": "fold"}, {"measurement": "median velocity of DC in micro-channels vs medium", "setting": "DCs [2]; DC pre-cultured in medium or TSLP", "value": "no significant difference"}, {"measurement": "DC activation based on surface CD40, CD80 and CD86", "setting": "DCs [3]; 24 h of culture", "value": "strong up-regulation"}, {"measurement": "surface OX40-ligand (OX40L) expression on DC", "setting": "DCs [3]; 48 h of culture", "value": "up-regulation"}]}
